From ChEMBL document CHEMBL1129930, “Analogues of methotrexate in rheumatoid arthritis. 2. Effects of 5-deazaaminopterin, 5,10-dideazaaminopterin, and analogues on type II collagen-induced arthritis in mice” (J Med Chem, 1997)

How the values were obtained:
Assay type in all cases: functional
[1] = Concentration required to inhibit the growth of chang liver cells.; settings: Homo sapiens
Mus musculus [2] = assay: Incidence of disease (mouse type II collagen) was scored as the percentage of animals within each experimental group that exhibited joint or limb inflammation on day 23 at intraperitoneal dose of 0.024 mg/kg (deaths observed at 1.5 mg/kg)
Mus musculus [3] = assay: Incidence of disease (mouse type II collagen) was scored as the percentage of animals within each experimental group that exhibited joint or limb inflammation on day 23 at intraperitoneal dose of 0.047 mg/kg (deaths observed at 1.5 mg/kg)
Mus musculus [4] = assay: Incidence of disease (mouse type II collagen) was scored as the percentage of animals within each experimental group that exhibited joint or limb inflammation on day 23 at intraperitoneal dose of 0.19 mg/kg (deaths observed at 1.5 mg/kg)
Mus musculus [5] = assay: Incidence of disease (mouse type II collagen) was scored as the percentage of animals within each experimental group that exhibited joint or limb inflammation on day 23 at intraperitoneal dose of 0.38 mg/kg (deaths observed at 1.5 mg/kg)
Mus musculus [6] = assay: Incidence of disease (mouse type II collagen) was scored as the percentage of animals within each experimental group that exhibited joint or limb inflammation on day 23 at intraperitoneal dose of 0.75 mg/kg (deaths observed at 1.5 mg/kg)
Mus musculus [7] = assay: Incidence of disease (mouse type II collagen) was scored as the percentage of animals within each experimental group that exhibited joint or limb inflammation on day 44 at intraperitoneal dose of 0.75 mg/kg (deaths observed at 1.5 mg/kg)
Mus musculus [8] = assay: Incidence of disease (mouse type II collagen) was scored as the percentage of animals within each experimental group that exhibited joint or limb inflammation on day 30 at intraperitoneal dose of 0.19 mg/kg (deaths observed at 1.5 mg/kg)
Mus musculus [9] = assay: Incidence of disease (mouse type II collagen) was scored as the percentage of animals within each experimental group that exhibited joint or limb inflammation on day 37 at intraperitoneal dose of 0.38 mg/kg (deaths observed at 1.5 mg/kg)
Mus musculus [10] = assay: Tested for antiinflammatory activity on mouse type II collagen arthritis as Paw swelling of all animals in each group on day 23 at intraperitoneal dose of 0.047 mg/kg
Mus musculus [11] = assay: Tested for antiinflammatory activity on mouse type II collagen arthritis as Paw swelling of all animals in each group on day 23 at intraperitoneal dose of 0.094 mg/kg
Mus musculus [12] = assay: Tested for antiinflammatory activity on mouse type II collagen arthritis as Paw swelling of all animals in each group on day 30 at intraperitoneal dose of 0.19 mg/kg
Mus musculus [13] = assay: Tested for antiinflammatory activity on mouse type II collagen arthritis as Paw swelling of all animals in each group on day 44 at intraperitoneal dose of 0.047 mg/kg
Mus musculus [14] = assay: Tested for antiinflammatory activity on mouse type II collagen arthritis as Paw swelling of all animals in each group on day 44 at intraperitoneal dose of 0.19 mg/kg
Mus musculus [15] = assay: Tested for antiinflammatory activity on mouse type II collagen arthritis as Paw swelling of all animals in each group on day 44 at intraperitoneal dose of 0.38 mg/kg
Mus musculus [16] = assay: Tested for antiinflammatory activity on mouse type II collagen arthritis as Paw swelling of all animals in each group on day 23 at intraperitoneal dose of 0.38 mg/kg

## CCc1c(CN(C)c2ccc(C(=O)NC(CCC(=O)O)C(=O)O)cc2)cnc2nc(N)nc(N)c12 (stereo unspecified)
[1]
  IC50: 89 nM
Mus musculus [2]
  Animals: 0%
Mus musculus [3]
  Animals: 0%
Mus musculus [4]
  Animals: 0%
Mus musculus [5]
  Animals: 0%
Mus musculus [6]
  Animals: 0%
Mus musculus [7]
  Animals: 14%
Mus musculus [8]
  Animals: 12%
Mus musculus [9]
  Animals: 0%
Mus musculus [10]
  Paw swelling: 2.1 mm
Mus musculus [11]
  Paw swelling: 2.15 mm
Mus musculus [12]
  Paw swelling: 2.14 mm
Mus musculus [13]
  Paw swelling: 2.57 mm
Mus musculus [14]
  Paw swelling: 2.2 mm
Mus musculus [15]
  Paw swelling: 2.15 mm
Mus musculus [16]
  Paw swelling: 2.15 mm
